Reference: the supplement of paper PMC10307832

Legend:
Experiment in all cases: relative viability (nuclei count vs DMSO), 5 days (fraction); higher = more cells survive
Neratinib + Palbociclib = compound: CCOc1cc2ncc(C#N)c(Nc3ccc(OCc4ccccn4)c(Cl)c3)c2cc1NC(=O)/C=C/CN(C)C [Neratinib] + CC(=O)c1c(C)c2cnc(Nc3ccc(N4CCNCC4)cn3)nc2n(C2CCCC2)c1=O [Palbociclib] (partner 0.5 µM)
Procedure, shortened: (§1)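 A single step with final 0.05% Triton X-100, 1% formaldehyde and 1 ug/ml Hoechst fixed the cells and stained nuclei 5 days after treatment. Lung cancer cell lines in 1536-well plates had been treated by pin tool the day after seeding with one drug alone or a fixed anchor-drug dose plus five library-drug doses (not always all listed) in √10 steps, and nuclei were counted on 4× images. Relative viability is the ratio of nuclei in treated wells to nuclei in vehicle wells, taken as the median of duplicate plates.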

Neratinib + Bortezomib = compound: CCOc1cc2ncc(C#N)c(Nc3ccc(OCc4ccccn4)c(Cl)c3)c2cc1NC(=O)/C=C/CN(C)C [Neratinib] + CC(C)C[C@H](NC(=O)[C@H](Cc1ccccc1)NC(=O)c1cnccn1)B(O)O [Bortezomib] (partner 0.002 µM)
Procedure, shortened: as §1

Neratinib + Foretinib = compound: CCOc1cc2ncc(C#N)c(Nc3ccc(OCc4ccccn4)c(Cl)c3)c2cc1NC(=O)/C=C/CN(C)C [Neratinib] + COc1cc2c(Oc3ccc(NC(=O)C4(C(=O)Nc5ccc(F)cc5)CC4)cc3F)ccnc2cc1OCCCN1CCOCC1 [Foretinib] (partner 0.25 µM)
Procedure, shortened: as §1

Neratinib + Pictilisib = compound: CCOc1cc2ncc(C#N)c(Nc3ccc(OCc4ccccn4)c(Cl)c3)c2cc1NC(=O)/C=C/CN(C)C [Neratinib] + CS(=O)(=O)N1CCN(Cc2cc3nc(-c4cccc5[nH]ncc45)nc(N4CCOCC4)c3s2)CC1 [Pictilisib] (partner 1 µM)
Procedure, shortened: as §1

| Cell Line | relative viability (Neratinib + Palbociclib; first compound 0.01 µM) | relative viability (Neratinib + Palbociclib; first compound 0.03162 µM) | relative viability (Neratinib + Palbociclib; first compound 0.1 µM) | relative viability (Neratinib + Palbociclib; first compound 0.3162 µM) | relative viability (Neratinib + Palbociclib; first compound 1 µM) | relative viability (Neratinib + Bortezomib; first compound 0.01 µM) | relative viability (Neratinib + Bortezomib; first compound 0.03162 µM) | relative viability (Neratinib + Bortezomib; first compound 0.1 µM) | relative viability (Neratinib + Bortezomib; first compound 0.3162 µM) | relative viability (Neratinib + Bortezomib; first compound 1 µM) | relative viability (Neratinib + Foretinib; first compound 0.01 µM) | relative viability (Neratinib + Foretinib; first compound 0.03162 µM) | relative viability (Neratinib + Foretinib; first compound 0.1 µM) | relative viability (Neratinib + Foretinib; first compound 0.3162 µM) | relative viability (Neratinib + Pictilisib; first compound 0.01 µM) | relative viability (Neratinib + Pictilisib; first compound 0.03162 µM) | relative viability (Neratinib + Pictilisib; first compound 0.1 µM) | relative viability (Neratinib + Pictilisib; first compound 0.3162 µM) | relative viability (Neratinib + Pictilisib; first compound 1 µM) | relative viability (Neratinib + Foretinib; first compound 1 µM) |
| --- | --- | --- | --- | --- | --- | --- | --- | --- | --- | --- | --- | --- | --- | --- | --- | --- | --- | --- | --- | --- |
| 201T | 0.361 | 0.351 | 0.343 | 0.321 | 0.335 | 1.08 | 1.1 | 1.06 | 1.12 | 1.09 | 1.06 | 1.12 | 0.797 | 0.995 | 0.728 | 0.727 | 0.667 | 0.662 | 0.756 |  |
| A-427 | 0.554 | 0.576 | 0.565 | 0.488 | 0.513 | 1.08 | 0.996 | 1.02 | 0.952 | 0.918 | 1.05 |  | 0.972 | 0.935 | 0.952 | 0.738 | 0.773 | 0.675 | 0.62 | 0.255 |
| ABC-1 | 0.618 | 0.721 | 0.472 | 0.587 | 0.486 | 0.297 | 0.348 | 0.379 | 0.3 | 0.312 | 1.16 | 1.12 | 0.689 | 0.954 | 0.783 | 0.582 | 0.672 | 0.666 | 0.387 | 0.466 |
| BEN | 0.459 | 0.47 | 0.45 | 0.457 | 0.447 | 0.844 | 1.02 | 0.72 | 0.615 | 0.635 | 0.66 | 0.631 | 0.822 | 0.657 | 0.627 | 0.665 | 0.495 | 0.479 | 0.441 | 0.498 |
| CAL-12T | 0.41 | 0.478 | 0.179 | 0.118 | 0.184 | 0.949 | 1.01 | 0.785 | 0.508 | 0.335 | 1.04 | 1.12 | 0.979 | 0.824 | 0.491 | 0.548 | 0.362 | 0.396 | 0.218 | 0.284 |
| COR-L23 | 0.328 | 0.333 | 0.275 | 0.255 | 0.216 | 1.06 | 1.18 | 0.888 | 0.964 | 0.799 | 1.09 | 1.03 | 0.946 | 0.966 |  |  | 0.739 | 0.644 | 0.257 | 0.837 |
| COR-L 105 | 0.397 | 0.451 | 0.385 | 0.351 | 0.341 | 0.856 | 0.883 | 0.429 | 0.347 | 0.346 | 0.995 | 1.28 | 0.54 | 0.324 | 0.455 | 0.412 | 0.377 | 0.31 | 0.312 | 0.284 |
| Calu-6 |  |  |  |  |  | 1.1 |  | 0.993 | 1 | 0.692 | 0.929 | 0.891 | 0.736 | 0.85 | 0.924 | 1.01 | 0.891 | 0.788 | 0.405 | 0.513 |
